Measurements published in paper PMC11106072, “CDK9 inhibition as an effective therapy for small cell lung cancer” (Cell Death & Disease, 2024).

Biological target: T1, CDK9 (Homo sapiens, UniProt P50750)
T1 construct: with CyclinT1
Assay: IMAP fluorescence polarisation kinase assay with CDK9/CyclinT1 (TAMRA-Rbtide, […] ATP); radiometric selectivity panel of […] CDK/cyclin pairs
Type: biochemical

T1 sequence (P50750 whole entry): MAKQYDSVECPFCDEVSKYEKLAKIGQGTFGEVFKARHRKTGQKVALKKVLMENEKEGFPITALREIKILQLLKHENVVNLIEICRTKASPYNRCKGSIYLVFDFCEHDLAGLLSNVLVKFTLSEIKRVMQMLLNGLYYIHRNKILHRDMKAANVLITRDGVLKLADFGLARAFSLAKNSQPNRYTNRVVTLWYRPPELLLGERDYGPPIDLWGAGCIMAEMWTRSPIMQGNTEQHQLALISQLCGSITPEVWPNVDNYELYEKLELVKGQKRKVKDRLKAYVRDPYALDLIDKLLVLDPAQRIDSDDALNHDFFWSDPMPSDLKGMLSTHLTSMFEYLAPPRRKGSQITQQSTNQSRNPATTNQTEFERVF
T1 sequence (O60563 whole entry partner): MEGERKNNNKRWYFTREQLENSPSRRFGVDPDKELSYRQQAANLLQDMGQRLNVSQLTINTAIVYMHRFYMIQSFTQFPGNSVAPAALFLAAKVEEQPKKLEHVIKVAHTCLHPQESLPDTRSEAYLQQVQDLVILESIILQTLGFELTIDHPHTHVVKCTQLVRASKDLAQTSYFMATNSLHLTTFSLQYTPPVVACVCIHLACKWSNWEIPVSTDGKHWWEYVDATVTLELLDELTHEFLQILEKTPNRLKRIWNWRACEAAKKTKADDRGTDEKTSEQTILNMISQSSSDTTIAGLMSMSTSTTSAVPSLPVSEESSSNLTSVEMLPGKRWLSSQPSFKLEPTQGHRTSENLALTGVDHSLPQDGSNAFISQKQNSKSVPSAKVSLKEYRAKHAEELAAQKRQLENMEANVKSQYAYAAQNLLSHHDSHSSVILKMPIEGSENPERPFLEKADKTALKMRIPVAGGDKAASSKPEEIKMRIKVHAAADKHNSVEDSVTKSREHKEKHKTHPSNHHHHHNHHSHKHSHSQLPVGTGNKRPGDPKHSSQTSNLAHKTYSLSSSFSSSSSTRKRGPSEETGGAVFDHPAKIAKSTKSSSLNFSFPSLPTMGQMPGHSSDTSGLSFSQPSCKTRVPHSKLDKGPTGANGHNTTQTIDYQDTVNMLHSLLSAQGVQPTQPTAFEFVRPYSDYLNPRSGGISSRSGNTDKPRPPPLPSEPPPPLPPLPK

COc1ccccc1-c1ncnc(Nc2cccc(Cn3cnc4ccccc43)c2)n1 [VC-1, VCC972839:01]
IC50: 7 nM
